Measurements taken from ChEMBL document CHEMBL5303573, “Mapping human microbiome drug metabolism by gut bacteria and their genes” (Nature, 2019).

Assay: The drug is tested on Bifidobacterium longum subsp. Infantis strain: CCUG52486 for biotransformation. The drug concentrations were measured before and after a 12-h incubation by liquid-chromatography-coupled mass spectrometry (LC–MS)
Conditions: 2 µM

Structure (SMILES)	Bacterial Biotransformation
CCOC(=O)[C@H](CCc1ccccc1)N[C@@H](C)C(=O)N1[C@H](C(=O)O)C[C@H]2CCCC[C@@H]21 [TRANDOLAPRIL]	Compound NOT metabolized
COc1ccc2[nH]c([S+]([O-])Cc3ncc(C)c(OC)c3C)nc2n1 (stereo unspecified) [TENATOPRAZOLE]	Compound metabolized
CCN(CC)C(=O)/C(C#N)=C/c1cc(O)c(O)c([N+](=O)[O-])c1 [ENTACAPONE]	Compound metabolized

Assay: The drug is tested on Collinsella aerofaciens strain: ATCC25986 for biotransformation. The drug concentrations were measured before and after a 12-h incubation by liquid-chromatography-coupled mass spectrometry (LC–MS)
Conditions: 2 µM

Structure (SMILES)	Bacterial Biotransformation
CCOC(=O)[C@H](CCc1ccccc1)N[C@@H](C)C(=O)N1[C@H](C(=O)O)C[C@H]2CCCC[C@@H]21 [TRANDOLAPRIL]	Compound NOT metabolized
COc1ccc2[nH]c([S+]([O-])Cc3ncc(C)c(OC)c3C)nc2n1 (stereo unspecified) [TENATOPRAZOLE]	Compound metabolized
CCN(CC)C(=O)/C(C#N)=C/c1cc(O)c(O)c([N+](=O)[O-])c1 [ENTACAPONE]	Compound metabolized

Assay: The drug is tested on Bacteroides caccae strain: ATCC43185 for biotransformation. The drug concentrations were measured before and after a 12-h incubation by liquid-chromatography-coupled mass spectrometry (LC–MS)
Conditions: 2 µM

Structure (SMILES)	Bacterial Biotransformation
CCOC(=O)[C@H](CCc1ccccc1)N[C@@H](C)C(=O)N1[C@H](C(=O)O)C[C@H]2CCCC[C@@H]21 [TRANDOLAPRIL]	Compound NOT metabolized
COc1ccc2[nH]c([S+]([O-])Cc3ncc(C)c(OC)c3C)nc2n1 (stereo unspecified) [TENATOPRAZOLE]	Compound metabolized
CCN(CC)C(=O)/C(C#N)=C/c1cc(O)c(O)c([N+](=O)[O-])c1 [ENTACAPONE]	Compound metabolized

Assay: The drug is tested on Bacteroides finegoldii strain: DSM17565 for biotransformation. The drug concentrations were measured before and after a 12-h incubation by liquid-chromatography-coupled mass spectrometry (LC–MS)
Conditions: 2 µM

Structure (SMILES)	Bacterial Biotransformation
CCOC(=O)[C@H](CCc1ccccc1)N[C@@H](C)C(=O)N1[C@H](C(=O)O)C[C@H]2CCCC[C@@H]21 [TRANDOLAPRIL]	Compound NOT metabolized
COc1ccc2[nH]c([S+]([O-])Cc3ncc(C)c(OC)c3C)nc2n1 (stereo unspecified) [TENATOPRAZOLE]	Compound metabolized
CCN(CC)C(=O)/C(C#N)=C/c1cc(O)c(O)c([N+](=O)[O-])c1 [ENTACAPONE]	Compound metabolized

Assay: The drug is tested on Bacteroides fragilis strain: HMW615 for biotransformation. The drug concentrations were measured before and after a 12-h incubation by liquid-chromatography-coupled mass spectrometry (LC–MS)
Conditions: 2 µM

Structure (SMILES)	Bacterial Biotransformation
CCOC(=O)[C@H](CCc1ccccc1)N[C@@H](C)C(=O)N1[C@H](C(=O)O)C[C@H]2CCCC[C@@H]21 [TRANDOLAPRIL]	Compound metabolized
COc1ccc2[nH]c([S+]([O-])Cc3ncc(C)c(OC)c3C)nc2n1 (stereo unspecified) [TENATOPRAZOLE]	Compound metabolized
CCN(CC)C(=O)/C(C#N)=C/c1cc(O)c(O)c([N+](=O)[O-])c1 [ENTACAPONE]	Compound metabolized

Assay: The drug is tested on Bacteroides fragilis strain: ATCC43859 for biotransformation. The drug concentrations were measured before and after a 12-h incubation by liquid-chromatography-coupled mass spectrometry (LC–MS)
Conditions: 2 µM

Structure (SMILES)	Bacterial Biotransformation
CCOC(=O)[C@H](CCc1ccccc1)N[C@@H](C)C(=O)N1[C@H](C(=O)O)C[C@H]2CCCC[C@@H]21 [TRANDOLAPRIL]	Compound metabolized
COc1ccc2[nH]c([S+]([O-])Cc3ncc(C)c(OC)c3C)nc2n1 (stereo unspecified) [TENATOPRAZOLE]	Compound metabolized
CCN(CC)C(=O)/C(C#N)=C/c1cc(O)c(O)c([N+](=O)[O-])c1 [ENTACAPONE]	Compound metabolized

Assay: The drug is tested on Bacteroides xylanisolvens strain: DSM18836 for biotransformation. The drug concentrations were measured before and after a 12-h incubation by liquid-chromatography-coupled mass spectrometry (LC–MS)
Conditions: 2 µM

Structure (SMILES)	Bacterial Biotransformation
CCOC(=O)[C@H](CCc1ccccc1)N[C@@H](C)C(=O)N1[C@H](C(=O)O)C[C@H]2CCCC[C@@H]21 [TRANDOLAPRIL]	Compound metabolized
COc1ccc2[nH]c([S+]([O-])Cc3ncc(C)c(OC)c3C)nc2n1 (stereo unspecified) [TENATOPRAZOLE]	Compound metabolized
CCN(CC)C(=O)/C(C#N)=C/c1cc(O)c(O)c([N+](=O)[O-])c1 [ENTACAPONE]	Compound metabolized

Assay: The drug is tested on Odoribacter splanchnicus strain: fecal isolate for biotransformation. The drug concentrations were measured before and after a 12-h incubation by liquid-chromatography-coupled mass spectrometry (LC–MS)
Conditions: 2 µM

Structure (SMILES)	Bacterial Biotransformation
CCOC(=O)[C@H](CCc1ccccc1)N[C@@H](C)C(=O)N1[C@H](C(=O)O)C[C@H]2CCCC[C@@H]21 [TRANDOLAPRIL]	Compound metabolized
COc1ccc2[nH]c([S+]([O-])Cc3ncc(C)c(OC)c3C)nc2n1 (stereo unspecified) [TENATOPRAZOLE]	Compound metabolized
CCN(CC)C(=O)/C(C#N)=C/c1cc(O)c(O)c([N+](=O)[O-])c1 [ENTACAPONE]	Compound metabolized

Assay: The drug is tested on Clostridium scindens strain: ATCC35704 for biotransformation. The drug concentrations were measured before and after a 12-h incubation by liquid-chromatography-coupled mass spectrometry (LC–MS)
Conditions: 2 µM

Structure (SMILES)	Bacterial Biotransformation
CCOC(=O)[C@H](CCc1ccccc1)N[C@@H](C)C(=O)N1[C@H](C(=O)O)C[C@H]2CCCC[C@@H]21 [TRANDOLAPRIL]	Compound NOT metabolized
COc1ccc2[nH]c([S+]([O-])Cc3ncc(C)c(OC)c3C)nc2n1 (stereo unspecified) [TENATOPRAZOLE]	Compound metabolized
CCN(CC)C(=O)/C(C#N)=C/c1cc(O)c(O)c([N+](=O)[O-])c1 [ENTACAPONE]	Compound metabolized

Assay: The drug is tested on Clostridium sporogenes strain: ATCC15579 for biotransformation. The drug concentrations were measured before and after a 12-h incubation by liquid-chromatography-coupled mass spectrometry (LC–MS)
Conditions: 2 µM

Structure (SMILES)	Bacterial Biotransformation
CCOC(=O)[C@H](CCc1ccccc1)N[C@@H](C)C(=O)N1[C@H](C(=O)O)C[C@H]2CCCC[C@@H]21 [TRANDOLAPRIL]	Compound metabolized
COc1ccc2[nH]c([S+]([O-])Cc3ncc(C)c(OC)c3C)nc2n1 (stereo unspecified) [TENATOPRAZOLE]	Compound metabolized
CCN(CC)C(=O)/C(C#N)=C/c1cc(O)c(O)c([N+](=O)[O-])c1 [ENTACAPONE]	Compound metabolized

Assay: The drug is tested on Coprococcus comes strain: ATCC27758 for biotransformation. The drug concentrations were measured before and after a 12-h incubation by liquid-chromatography-coupled mass spectrometry (LC–MS)
Assay type: ADME
Parameters: dose 2 uM, timepoint 0 vs 12 hours
Conditions: 2 µM

Structure (SMILES)	Bacterial Biotransformation
CCOC(=O)[C@H](CCc1ccccc1)N[C@@H](C)C(=O)N1[C@H](C(=O)O)C[C@H]2CCCC[C@@H]21 [TRANDOLAPRIL]	Compound NOT metabolized
COc1ccc2[nH]c([S+]([O-])Cc3ncc(C)c(OC)c3C)nc2n1 (stereo unspecified) [TENATOPRAZOLE]	Compound metabolized
CCN(CC)C(=O)/C(C#N)=C/c1cc(O)c(O)c([N+](=O)[O-])c1 [ENTACAPONE]	Compound metabolized

Assay: The drug is tested on Eubacterium hallii strain: DSM3353 for biotransformation. The drug concentrations were measured before and after a 12-h incubation by liquid-chromatography-coupled mass spectrometry (LC–MS)
Conditions: anaerobutyricum hallii, 2 µM

Structure (SMILES)	Bacterial Biotransformation
CCOC(=O)[C@H](CCc1ccccc1)N[C@@H](C)C(=O)N1[C@H](C(=O)O)C[C@H]2CCCC[C@@H]21 [TRANDOLAPRIL]	Compound NOT metabolized
COc1ccc2[nH]c([S+]([O-])Cc3ncc(C)c(OC)c3C)nc2n1 (stereo unspecified) [TENATOPRAZOLE]	Compound metabolized
CCN(CC)C(=O)/C(C#N)=C/c1cc(O)c(O)c([N+](=O)[O-])c1 [ENTACAPONE]	Compound metabolized

Assay: The drug is tested on Ruminococcus lactaris strain: ATCC29176 for biotransformation. The drug concentrations were measured before and after a 12-h incubation by liquid-chromatography-coupled mass spectrometry (LC–MS)
Conditions: 2 µM

Structure (SMILES)	Bacterial Biotransformation
CCOC(=O)[C@H](CCc1ccccc1)N[C@@H](C)C(=O)N1[C@H](C(=O)O)C[C@H]2CCCC[C@@H]21 [TRANDOLAPRIL]	Compound NOT metabolized
CCN(CC)C(=O)/C(C#N)=C/c1cc(O)c(O)c([N+](=O)[O-])c1 [ENTACAPONE]	Compound metabolized

Assay: The drug is tested on Enterobacter cancerogenus strain: ATCC35316 for biotransformation. The drug concentrations were measured before and after a 12-h incubation by liquid-chromatography-coupled mass spectrometry (LC–MS)
Conditions: 2 µM

Structure (SMILES)	Bacterial Biotransformation
CCOC(=O)[C@H](CCc1ccccc1)N[C@@H](C)C(=O)N1[C@H](C(=O)O)C[C@H]2CCCC[C@@H]21 [TRANDOLAPRIL]	Compound NOT metabolized
COc1ccc2[nH]c([S+]([O-])Cc3ncc(C)c(OC)c3C)nc2n1 (stereo unspecified) [TENATOPRAZOLE]	Compound metabolized
CCN(CC)C(=O)/C(C#N)=C/c1cc(O)c(O)c([N+](=O)[O-])c1 [ENTACAPONE]	Compound metabolized

Assay: The drug is tested on Providencia rettgeri strain: DSM1131 for biotransformation. The drug concentrations were measured before and after a 12-h incubation by liquid-chromatography-coupled mass spectrometry (LC–MS)
Assay type: ADME
Parameters: dose 2 uM, timepoint 0 vs 12 hours
Conditions: 2 µM

Structure (SMILES)	Bacterial Biotransformation
CCOC(=O)[C@H](CCc1ccccc1)N[C@@H](C)C(=O)N1[C@H](C(=O)O)C[C@H]2CCCC[C@@H]21 [TRANDOLAPRIL]	Compound metabolized
COc1ccc2[nH]c([S+]([O-])Cc3ncc(C)c(OC)c3C)nc2n1 (stereo unspecified) [TENATOPRAZOLE]	Compound metabolized

Conditions: bacteroides fragilis, 12 h, 2 µM
Description: The drug is tested on Bacteroides fragilis strain: 3397 (T10) for biotransformation. The drug concentrations were measured before and after a 12-h incubation by liquid-chromatography-coupled mass spectrometry (LC–MS)

Structure (SMILES)	Bacterial Biotransformation
CCOC(=O)[C@H](CCc1ccccc1)N[C@@H](C)C(=O)N1[C@H](C(=O)O)C[C@H]2CCCC[C@@H]21 [TRANDOLAPRIL]	Compound metabolized
COc1ccc2[nH]c([S+]([O-])Cc3ncc(C)c(OC)c3C)nc2n1 (stereo unspecified) [TENATOPRAZOLE]	Compound metabolized
CCN(CC)C(=O)/C(C#N)=C/c1cc(O)c(O)c([N+](=O)[O-])c1 [ENTACAPONE]	Compound metabolized

Conditions: bacteroides intestinalis, 12 h, 2 µM
Description: The drug is tested on Bacteroides intestinalis strain: DSM17393 for biotransformation. The drug concentrations were measured before and after a 12-h incubation by liquid-chromatography-coupled mass spectrometry (LC–MS)

Structure (SMILES)	Bacterial Biotransformation
CCOC(=O)[C@H](CCc1ccccc1)N[C@@H](C)C(=O)N1[C@H](C(=O)O)C[C@H]2CCCC[C@@H]21 [TRANDOLAPRIL]	Compound NOT metabolized
COc1ccc2[nH]c([S+]([O-])Cc3ncc(C)c(OC)c3C)nc2n1 (stereo unspecified) [TENATOPRAZOLE]	Compound metabolized
CCN(CC)C(=O)/C(C#N)=C/c1cc(O)c(O)c([N+](=O)[O-])c1 [ENTACAPONE]	Compound metabolized

Conditions: bacteroides thetaiotaomicron, 12 h, 2 µM
Description: The drug is tested on Bacteroides thetaiotaomicron strain: 3731 for biotransformation. The drug concentrations were measured before and after a 12-h incubation by liquid-chromatography-coupled mass spectrometry (LC–MS)

Structure (SMILES)	Bacterial Biotransformation
COc1ccc2[nH]c([S+]([O-])Cc3ncc(C)c(OC)c3C)nc2n1 (stereo unspecified) [TENATOPRAZOLE]	Compound metabolized
CCN(CC)C(=O)/C(C#N)=C/c1cc(O)c(O)c([N+](=O)[O-])c1 [ENTACAPONE]	Compound metabolized

Conditions: parabacteroides distasonis, 12 h, 2 µM
Description: The drug is tested on Parabacteroides distasonis strain: ATCC8503 for biotransformation. The drug concentrations were measured before and after a 12-h incubation by liquid-chromatography-coupled mass spectrometry (LC–MS)

Structure (SMILES)	Bacterial Biotransformation
CCOC(=O)[C@H](CCc1ccccc1)N[C@@H](C)C(=O)N1[C@H](C(=O)O)C[C@H]2CCCC[C@@H]21 [TRANDOLAPRIL]	Compound metabolized
COc1ccc2[nH]c([S+]([O-])Cc3ncc(C)c(OC)c3C)nc2n1 (stereo unspecified) [TENATOPRAZOLE]	Compound metabolized
CCN(CC)C(=O)/C(C#N)=C/c1cc(O)c(O)c([N+](=O)[O-])c1 [ENTACAPONE]	Compound metabolized

Conditions: anaerostipes sp., 12 h, 2 µM
Description: The drug is tested on Anaerostipes sp. strain: fecal isolate for biotransformation. The drug concentrations were measured before and after a 12-h incubation by liquid-chromatography-coupled mass spectrometry (LC–MS)

Structure (SMILES)	Bacterial Biotransformation
CCOC(=O)[C@H](CCc1ccccc1)N[C@@H](C)C(=O)N1[C@H](C(=O)O)C[C@H]2CCCC[C@@H]21 [TRANDOLAPRIL]	Compound NOT metabolized
CCN(CC)C(=O)/C(C#N)=C/c1cc(O)c(O)c([N+](=O)[O-])c1 [ENTACAPONE]	Compound metabolized
